Reference: patent US20080312435A1, “Imine Compound” (TAISHO PHARMACEUTICAL CO., LTD., priority 2004, published 2008)
pEC50, pIC50: −log10 of the molar value.

Legend:
human CB2 receptor [1] = biological target: T1, human CB2 receptor (Homo sapiens, UniProt P34972); test: Test for GTPγS binding via human CB2 receptor; type: biochemical; settings: human CB2 receptor CHO membrane fractions; read-out: EC50 value (effective concentration exhibiting 50% activity), GTPγS binding
T1 construct: expressed in transfected cells
Protocol: Test for GTPγS Binding Via Human CB2 Receptor
The CHO cells capable of stably expressing the human CB2 receptor were prepared in the same manner as in Experimental Example 1.

human CB2 receptor [2] = biological target: T1, human CB2 receptor; test: Human CB2 receptor binding inhibition test ([3H]CP-55,940, CHO membrane fractions); settings: [3H]CP-55,940, membrane fractions of CHO cells stably expressing human CB2 receptor, 25° C., 2 hours; read-out: CB2 IC50 (Inhibition of binding to human CB2 receptor)
Procedure, shortened: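 Membranes from CHO-DHFR(−) cells stably expressing human CB2 used for [3H]CP-55,940 binding; filter-bound radioactivity counted by scintillation after washes with 0.1% BSA buffer. Nonspecific binding defined with 2.0 μM CP-55,940; IC50 for inhibition of specific binding.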

[3] = test system: Jcl: ICR-series male mice; test: Writhing test with acetic acid in mouse; type: in vivo; settings: orally administered 30 mg/kg, acetic acid i.p. one hour after administration
Protocol: Writhing Test with Acetic Acid in Mouse
This test was performed in accordance with the method of Futaki N et al. (Gen Pharmacol. 24(1):105-110 (1993). A test compound suspended in a 5% gum Arabic solution was orally administered to Jcl: ICR-series male mice (5 weeks old). One hour after the administration of the test compound, a 0.9% aqueous acetic acid solution was intraperitoneally administered. Five minutes after the administration, the number of abdomen stretch movements (pain-related behavior) were counted for 10 minutes. Only the 5% gum Arabic solution was orally administered to the control group. A pain-related behavior inhibition rate (%) was obtained based on the following equation.

Balb/c male mice = test: Test for edema on ear in mouse (PMA-induced); type: in vivo; settings: 1 mg per murine ear, PMA 0.8 μg, measured five hours later
Protocol: Test for Edema on Ear in Mouse
Using Balb/c male mice (5 weeks old), a test compound dissolved in acetone was applied in an amount of 20 μL to the inside the ear. Ten minutes after the application of the test compound, an acetone solution (20 μL) containing 0.8 μg of PMA (phorbol 12-myristate 13-acetate) was applied. Five hours later, the thickness (hyperplasia) of the ear was measured by a dial sickness gauge. Acetone alone was applied to the control group. The inhibition rate (%) of edema on the ear was calculated based on the following equation.

SD:IGS-series male rats = test: Neuropathic pain test in rat (partial sciatic nerve clipping, von Frey filament); type: in vivo; settings: oral administration 3, 10 and 30 mg/kg, one hour after administration, FIG. 1
Protocol: Neuropathic Pain Test in Rat
Using SD:IGS-series male rats (5 weeks old), neuropathic pain model were prepared by partially clipping the sciatic nerve of the femoral region in accordance with the method of Seltzer et al. (SeltzerZ; Pain. 43(2):205-218 (1990)). When the plantar surface of the paw on the affected side was stimulated by touching with a von Frey filament(s) (nylon fiber for use in a touch test: North Coast Medical, Inc.), the pain threshold (load (g) applied to the filament when an animal responds to touch stimulation) was measured. The test compound was suspended in a 5% gum Arabic solution and administered in a dose of 0 mg/kg, 3 mg/kg, 10 mg/kg and 30 mg/kg. One hour after the administration, pain threshold (g) was measured.

human CB1 receptor [4] = biological target: T2, human CB1 receptor (Homo sapiens, UniProt P21554); test: Human CB1 receptor binding inhibition test; settings: CHO-DHFR(−) cells stably expressing human CB1 receptor, same manner as Experimental Example 1
T2 construct: expressed in transfected cells
Protocol: Human CB1 Receptor Binding Inhibition Test
The CHO-DHFR(−) cells capable of stably expressing a CB1 receptor were prepared in the same manner as in Experimental Example 1. The binding test to the human CB1 receptor was performed to obtain 50% inhibitory concentration (IC50 value) of a test compound.

human CB1 receptor [5] = biological target: T2, human CB1 receptor; test: Test for GTPγS binding via human CB1 receptor; type: biochemical; settings: human CB1 receptor CHO membrane fractions; maximum activity of each compound regarded as 100%; read-out: EC50 value (effective concentration exhibiting 50% activity), [35S]GTPγS binding
Protocol: Test for GTPγS Binding Via Human CB1 Receptor
CHO cells capable of stably expressing the human CB1 receptor were prepared in the same manner as in Experimental Example 2. The membrane fractions thereof were incubated together with a test compound in an assay buffer [50 mM Tris-HCl (pH 7.4), 2.5 mM EDTA, 5 mM MgCl2, 3 μM GDP (manufactured by SIGMA), 30 μg/ml Saponin (manufactured by SIGMA)] containing 0.2% bovine serum albumin at 30° C. for 30 minutes. Thereafter, 0.1 nM [^35S]GTPγS (manufactured by Perkin Elmer) was added to the buffer, incubation was performed at 30° C. for 30 minutes. The resultant solution was filtrated by a glass filter GF/C and washed. Thereafter, radioactivity on the glass filter was measured by a liquid scintillation counter. The nonspecific binding was measured […].

T1 sequence (P34972 whole entry): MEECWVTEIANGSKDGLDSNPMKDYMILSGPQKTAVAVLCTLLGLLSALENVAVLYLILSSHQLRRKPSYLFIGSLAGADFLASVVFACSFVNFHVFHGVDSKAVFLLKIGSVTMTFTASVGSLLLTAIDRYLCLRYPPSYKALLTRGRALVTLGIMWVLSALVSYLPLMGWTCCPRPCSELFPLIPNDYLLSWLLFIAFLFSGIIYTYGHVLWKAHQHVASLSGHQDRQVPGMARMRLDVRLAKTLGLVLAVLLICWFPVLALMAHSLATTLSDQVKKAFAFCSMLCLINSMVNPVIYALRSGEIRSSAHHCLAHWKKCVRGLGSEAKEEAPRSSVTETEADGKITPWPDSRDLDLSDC
T2 sequence (P21554 whole entry): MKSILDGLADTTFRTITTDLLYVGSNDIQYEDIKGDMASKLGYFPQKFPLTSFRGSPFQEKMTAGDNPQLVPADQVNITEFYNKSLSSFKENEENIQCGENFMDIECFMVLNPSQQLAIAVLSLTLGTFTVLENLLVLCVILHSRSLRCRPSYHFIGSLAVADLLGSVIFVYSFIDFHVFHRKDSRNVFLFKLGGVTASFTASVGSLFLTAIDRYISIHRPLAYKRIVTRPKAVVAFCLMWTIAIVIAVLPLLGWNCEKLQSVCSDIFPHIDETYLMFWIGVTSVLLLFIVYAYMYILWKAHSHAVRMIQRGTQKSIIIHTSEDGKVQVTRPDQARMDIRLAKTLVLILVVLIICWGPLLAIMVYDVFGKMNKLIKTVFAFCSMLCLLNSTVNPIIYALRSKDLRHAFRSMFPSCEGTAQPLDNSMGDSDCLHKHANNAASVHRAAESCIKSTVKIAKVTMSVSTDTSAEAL

Row | Compound | pEC50 (human CB2 receptor [1]) | melting point | pIC50 (human CB2 receptor [2]) | pain-related behavior inhibition rate [3] | inhibition rate of edema on the ear (Balb/c male mice) | pain threshold (SD:IGS-series male rats) | pIC50 (human CB1 receptor [4]) | pEC50 (human CB1 receptor [5])
1 | O=C(/N=c1\ccccn1CC1CC1)c1cccc(C(F)(F)F)c1F [compound 9] | 7.63 | 58.5 to 59 °C | 7.95 | – | – | – | – | –
2 | COc1ccc(C(F)(F)F)cc1C(=O)/N=c1\cc(C(C)(C)C)sn1CC1CC1 [compound 59] | – | 95 to 97 °C | 8.14 | 44.8% | – | – | – | –
3 | Cc1c(C(C)(C)C)s/c(=N\C(=O)c2cccc(C(F)(F)F)c2)n1CC1CC1 [compound 184] | 8.01 | – | 7.92 | – | 65% | increased pain threshold in a dose depending manner | – | –
4 | Cc1cccc(C(=O)/N=c2\sc(C(C)(C)C)c(C)n2CC2CC2)c1Br [compound 247] | – | 142 to 144 °C | 9.52 | 93.0% | – | – | 8.52 | 7.48
5 | Cc1cccc(C(=O)/N=c2\sc(C(C)(C)C)c(C)n2CC2CC2)c1I [compound 249] | – | 149 to 151 °C | 9.40 | – | – | – | 8.70 | 7.72
6 | COc1ccc(C(F)(F)F)cc1C(=O)/N=c1\sc(C(C)(C)C)c(C)n1CC1CC1 [compound 267] | 9.40 | 175 to 177 °C | 8.96 | 59.9% | 84% | – | – | –
7 | Cc1c(C(C)(C)C)s/c(=N\C(=O)c2cc(Cl)cnc2Cl)n1CC1CC1 [compound 309] | – | 113 to 134 °C | 8.68 | – | – | – | 6.39 | –
8 | Cc1c(C(C)(C)C)s/c(=N\C(=O)c2ccnc3ccccc23)n1CC1CC1 [compound 323] | – | 124 to 126 °C | 8.21 | – | – | – | 6.44 | –
9 | Cc1c(C(C)(C)C)s/c(=N\C(=O)c2c(Cl)ccc3cc(Cl)cnc23)n1CC1CC1 [compound 327] | – | 172 to 174 °C | 8.44 | – | – | – | 7.26 | –
10 | Cc1c(C(C)(C)C)s/c(=N\C(=O)C2CCCCC2)n1CC1CC1 [compound 332] | – | 141 to 142 °C | 8.48 | – | – | – | 7.01 | –
11 | Cc1c(C(C)(C)C)s/c(=N\S(=O)(=O)c2ccccc2C(F)(F)F)n1CC1CC1 [compound 411] | – | – | 8.06 | 49.0% | – | – | – | –
12 | Cn1c(C(C)(C)C)c/c(=N\C(=O)c2cccc(C(F)(F)F)c2F)n1CC1CC1 [compound 474, N-(5-t-butyl-2-cyclopropylmethyl-1,2-dihydro-1-methylpyrazol-3-ylidene)-2-fluoro-3-(trifluoromethyl)benzamide] | 8.64 | – | 8.31 | 61.9% | 37% | – | – | –
13 | CCOCCn1/c(=N/C(=O)c2cccc(Cl)c2Cl)cc(C(C)(C)C)n1C [compound 486] | – | 145 to 146 °C | 8.29 | – | – | – | 6.68 | –
14 | CCOCCn1/c(=N/C(=O)c2cccc(C)c2Br)cc(C(C)(C)C)n1C [compound 487] | – | 166 to 167 °C | 8.00 | – | – | – | 6.61 | –
15 | CCOCCn1/c(=N/C(=O)c2cccc(Cl)c2C)cc(C(C)(C)C)n1C [compound 490] | – | 127 to 128 °C | 8.00 | – | – | – | 6.54 | –
16 | CCOCCn1/c(=N/C(=O)c2cccc(Br)c2C)cc(C(C)(C)C)n1C [compound 491] | – | 125 to 126 °C | 8.03 | – | – | – | 6.76 | –
17 | CC(C)(C)c1nn(CC2CC2)/c(=N/C(=O)c2nccc3ccccc23)s1 [compound 510] | – | 89 to 90 °C | 7.88 | 19.6% | – | – | – | –
